The source of these data is patent publication US20040053323A1, “Method of screening inducible nitric oxide synthase activation inhibitor” (priority 2000, published 2004).

Series [1] deals with T1, iNOS (Mus musculus, UniProt P29477).
T1 sequence (P29477 1-1144): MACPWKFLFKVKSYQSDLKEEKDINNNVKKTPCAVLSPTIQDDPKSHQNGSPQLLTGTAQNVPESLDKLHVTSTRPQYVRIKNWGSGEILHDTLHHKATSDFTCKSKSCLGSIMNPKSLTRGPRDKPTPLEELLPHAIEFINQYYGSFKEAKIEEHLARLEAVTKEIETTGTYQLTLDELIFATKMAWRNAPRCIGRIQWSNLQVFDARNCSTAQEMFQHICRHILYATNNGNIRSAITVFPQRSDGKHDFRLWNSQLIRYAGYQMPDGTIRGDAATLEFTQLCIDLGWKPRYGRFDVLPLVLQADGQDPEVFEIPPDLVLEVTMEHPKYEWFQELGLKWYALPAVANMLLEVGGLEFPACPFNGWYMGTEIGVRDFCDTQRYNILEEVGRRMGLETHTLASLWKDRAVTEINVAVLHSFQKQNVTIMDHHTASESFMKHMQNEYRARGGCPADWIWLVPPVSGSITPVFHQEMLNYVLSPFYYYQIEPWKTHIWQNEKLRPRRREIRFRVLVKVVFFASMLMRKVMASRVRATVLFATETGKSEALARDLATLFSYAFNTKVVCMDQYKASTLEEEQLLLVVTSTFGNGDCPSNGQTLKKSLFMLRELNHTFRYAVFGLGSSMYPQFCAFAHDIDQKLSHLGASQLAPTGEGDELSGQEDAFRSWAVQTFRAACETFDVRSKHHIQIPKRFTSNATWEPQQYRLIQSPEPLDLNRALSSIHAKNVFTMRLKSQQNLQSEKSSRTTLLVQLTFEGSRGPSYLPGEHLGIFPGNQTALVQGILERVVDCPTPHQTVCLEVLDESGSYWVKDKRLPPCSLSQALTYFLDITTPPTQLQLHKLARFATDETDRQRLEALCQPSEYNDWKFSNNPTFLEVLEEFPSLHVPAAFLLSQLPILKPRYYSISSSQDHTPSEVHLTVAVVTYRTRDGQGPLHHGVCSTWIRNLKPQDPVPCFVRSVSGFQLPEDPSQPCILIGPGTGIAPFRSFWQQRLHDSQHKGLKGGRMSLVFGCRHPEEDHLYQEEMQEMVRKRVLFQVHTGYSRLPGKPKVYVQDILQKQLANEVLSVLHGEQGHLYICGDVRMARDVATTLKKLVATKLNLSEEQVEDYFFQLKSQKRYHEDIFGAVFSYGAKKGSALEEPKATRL
The settings on record: cited from earlier work.

Series [2] deals with T1, iNOS. The series can be described thus: iNOS dimer/monomer detection by gel filtration and anti-iNOS dot blotting of LPS/IFN-stimulated RAW264.7 cell extract. In kind it is cell-based. The arrangement: endogenous in cells; host or cells: RAW264.7 mouse macrophage cells stimulated with LPS and IFN-γ. The settings on record: RAW264.7 cells, LPS/IFN stimulation, compound A added. How it is done: (§1) Mouse macrophage derived RAW264.7 cells (Stuehr D. J. Proc. Natl. Acad. Sci. USA. 1991, 88, 7773; Cancer Res. 1987, 47, 5590) were cultured in Dulbecco's Modified Eagle Medium containing 10% FCS (fetal calf serum) , until there were 2 to 4×10^7 cells in each F75 culture flask (Falcon). Then, lipopolysaccharide (LPS) and interferon-γ (IFN) were added to a final concentration of 4 μg/ml and 16 units/ml, respectively, and cultured overnight in a CO2 incubator (37° C.). 0.1% Trypsin (5 mL) was added to the flask in which the cells were cultured, the cells were detached by an incubation at 37° C. for 5 minutes, and then collected by centrifugation. […]
(§2) Then, 200 μL of that extract was applied to Superdex 200 HR10/30 (flow rate 0.5 mL/min: Amersham Pharmacia Biotech, Sweden) pre-equilibrated with 25 mM Tris-HCl (pH 8.0) containing 150 mM NaCl to perform gel filtration chromatography. Each of the fractions collected every minute were mixed with 7 mL of Aquasol-2 (Packard, USA), and was then measured with a liquid scintillation counter (FIG. 1). ^14C-A used in this experiment was synthesized as follows.
Gel filtration fractions containing compound A binding activity, which were obtained by a method similar to that of Example 2 were analyzed by dot blotting. […]
On the technique in general: In gel filtration, larger molecules generally elute earlier.

In series [3] the target is T2, ^14C-A-bound protein in RAW cells (Mus musculus, UniProt P29477).
T2 construct: endogenous in cells; host or cells: RAW264.7 mouse macrophage cells stimulated with LPS and IFN-γ
T2 sequence (P29477 1-1144): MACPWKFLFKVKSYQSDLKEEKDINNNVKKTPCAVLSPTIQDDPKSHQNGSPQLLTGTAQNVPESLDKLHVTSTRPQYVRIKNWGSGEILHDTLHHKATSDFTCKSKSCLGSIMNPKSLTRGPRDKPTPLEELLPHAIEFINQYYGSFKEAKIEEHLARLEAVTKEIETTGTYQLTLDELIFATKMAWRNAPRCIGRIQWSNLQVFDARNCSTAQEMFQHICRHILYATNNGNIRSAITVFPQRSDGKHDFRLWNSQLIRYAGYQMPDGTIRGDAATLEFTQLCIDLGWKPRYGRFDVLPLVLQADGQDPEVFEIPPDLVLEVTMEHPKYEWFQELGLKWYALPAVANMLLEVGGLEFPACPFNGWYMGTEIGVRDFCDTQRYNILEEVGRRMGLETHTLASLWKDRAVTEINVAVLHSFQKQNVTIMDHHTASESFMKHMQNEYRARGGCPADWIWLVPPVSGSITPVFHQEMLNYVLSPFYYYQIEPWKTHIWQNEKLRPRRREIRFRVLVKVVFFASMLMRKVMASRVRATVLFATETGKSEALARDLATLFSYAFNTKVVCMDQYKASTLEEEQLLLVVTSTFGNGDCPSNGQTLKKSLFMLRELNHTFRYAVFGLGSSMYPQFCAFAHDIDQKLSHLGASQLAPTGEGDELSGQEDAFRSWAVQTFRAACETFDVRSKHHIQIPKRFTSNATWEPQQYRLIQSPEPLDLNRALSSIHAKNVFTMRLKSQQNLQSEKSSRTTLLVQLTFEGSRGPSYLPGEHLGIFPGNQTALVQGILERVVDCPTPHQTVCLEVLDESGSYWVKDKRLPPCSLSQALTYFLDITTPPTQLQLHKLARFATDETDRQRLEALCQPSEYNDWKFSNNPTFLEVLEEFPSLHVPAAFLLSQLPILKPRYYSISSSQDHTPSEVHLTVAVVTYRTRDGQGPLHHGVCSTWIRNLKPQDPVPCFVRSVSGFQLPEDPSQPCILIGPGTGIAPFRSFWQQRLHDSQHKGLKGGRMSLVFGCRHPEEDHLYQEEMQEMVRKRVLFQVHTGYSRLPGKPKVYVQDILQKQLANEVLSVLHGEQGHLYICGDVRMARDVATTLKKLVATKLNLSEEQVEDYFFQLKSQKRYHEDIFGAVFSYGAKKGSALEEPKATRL
The series can be described thus: Dose dependency of ^14C-A binding activity in LPS/IFN-stimulated RAW264.7 cell extract. The settings on record: RAW264.7 cells, LPS/IFN stimulation. In kind it is cell-based. How it is done:
as §1, with “centrifugation. To the collected cells (2,000 rpm, 10 minutes), 600 μL of lysis buffer was added, and freeze thawing was repeated three times to disrupt the cells. The supernatant obtained by centrifugation (15,000 rpm, 15 minutes) was collected and this was the cell extract.” for “centrifugation.”
as §2

A further series concerns the target T3, Δ122-iNOSox (Homo sapiens, UniProt P35228).
T3 construct: genes of the oxygenase domain region (amino acids 1 to 526) by PCR; His tag; made in house; host or cells: E. coli, protease-deficient DE3 strain; vector pTrcHis2 (Invitrogen)
The series can be described thus: Binding assay of ^3H-compound A with Δ122-iNOSox (gel filtration mini column, scintillation counting). The settings on record: Δ122-iNOSox protein. The protocol: A binding assay system for ^3H-compound A (25Ci/mmol) was constructed using Δ122-iNOSox obtained in Example 9. In principle, it is an assay system in which the binding strength of a compound towards iNOS can be analyzed by measuring the amount of ^3H-compound A replaced by various test drugs added to bound Δ122-iNOSox protein and ^3H-compound A (10 nM) . That is, to 100 μL of a Δ122-iNOSox solution that has been diluted to a final concentration of 1 μg/mL with 25 mM Tris-HCl (pH 7.5) containing 150 mM NaCl and 1% CHAPS, 1 μL of 1 μM ^3H-compound A was added and was incubated for 3 hours at 4° C., then the entire amount was applied to a gel filtration mini column for desalting (NICK column; Pharmacia) that was pre-equilibrated with 25 mM Tris-HCl (pH 7.5) containing 150 mM NaCl. Next, 400 μL of the same buffer was added, the eluted solution was mixed with 7 mL of aquasol, and this was measured with a liquid scintillation counter.

Series [4] concerns the molecule itself. As to the kind of experiment: gel filtration (Superdex 200) of RAW264.7 cell extract with dot blot detection; homodimer peak.

T3 sequence (P35228 123-526 limits assumed, stated change not applied): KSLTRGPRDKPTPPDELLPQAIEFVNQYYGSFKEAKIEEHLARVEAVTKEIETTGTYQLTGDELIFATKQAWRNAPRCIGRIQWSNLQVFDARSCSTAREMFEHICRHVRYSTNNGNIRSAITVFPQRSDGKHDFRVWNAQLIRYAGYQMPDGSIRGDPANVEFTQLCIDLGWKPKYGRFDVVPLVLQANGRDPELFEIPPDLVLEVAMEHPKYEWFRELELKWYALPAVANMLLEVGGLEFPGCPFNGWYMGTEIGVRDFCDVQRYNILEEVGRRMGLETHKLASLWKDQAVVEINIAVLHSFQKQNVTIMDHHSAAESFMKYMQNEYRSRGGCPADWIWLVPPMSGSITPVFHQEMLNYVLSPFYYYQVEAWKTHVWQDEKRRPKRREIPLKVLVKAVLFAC

With `Clc1ccccc1C(c1ccccc1)(c1ccccc1)n1ccnc1` [clotrimazole], on iNOS [1], the “effect on iNOS enzyme activity and dimerization” value was “interfered not only with enzyme activity of iNOS but also with its dimerization”. Broadly, the Hill coefficient is a measure of the steepness of the concentration-response curve. By Kd is commonly meant the equilibrium constant for the complex coming apart. A lower Kd goes with higher affinity. On to `CN(Cc1cccnc1)C(=O)[C@H](Cc1ccccc1)NC(=O)[C@H](Cc1ccccn1)NC(=O)c1cc2ccccc2o1` [compound A], for which the “iNOS dimerization (dimer peak in dot blotting of gel filtration fractions)” value at iNOS [2] is reported as “the peak corresponding to the dimer had clearly disappeared”. Also, in series [3], the “radioactivity of cell extract versus added ^14C-A concentration (saturation)” value is “saturation of radioactivity was confirmed between 10^−6 M and 10^−5 M”. This molecule came in with a Hill coefficient on Δ122-iNOSox (Hill plot analysis) of 0.971. Also, at Δ122-iNOSox (^3H-compound A, saturation curve and Scatchard plot), the affinity, expressed as Kd, was 13.5 nM. Turning to `Clc1ccc(COC(Cn2ccnc2)c2ccc(Cl)cc2Cl)c(Cl)c1` (stereo not shown) [miconazole], the “effect on iNOS enzyme activity and dimerization” value at iNOS [1] is given as “interfered not only with enzyme activity of iNOS but also with its dimerization”.

B1: iNOS derived from mice (inducible nitrogen oxide synthase from LPS/IFN-stimulated RAW264.7 cells) (enzyme, mouse, UniProt P29477 1-1144, looked up)
chain: MACPWKFLFKVKSYQSDLKEEKDINNNVKKTPCAVLSPTIQDDPKSHQNGSPQLLTGTAQNVPESLDKLHVTSTRPQYVRIKNWGSGEILHDTLHHKATSDFTCKSKSCLGSIMNPKSLTRGPRDKPTPLEELLPHAIEFINQYYGSFKEAKIEEHLARLEAVTKEIETTGTYQLTLDELIFATKMAWRNAPRCIGRIQWSNLQVFDARNCSTAQEMFQHICRHILYATNNGNIRSAITVFPQRSDGKHDFRLWNSQLIRYAGYQMPDGTIRGDAATLEFTQLCIDLGWKPRYGRFDVLPLVLQADGQDPEVFEIPPDLVLEVTMEHPKYEWFQELGLKWYALPAVANMLLEVGGLEFPACPFNGWYMGTEIGVRDFCDTQRYNILEEVGRRMGLETHTLASLWKDRAVTEINVAVLHSFQKQNVTIMDHHTASESFMKHMQNEYRARGGCPADWIWLVPPVSGSITPVFHQEMLNYVLSPFYYYQIEPWKTHIWQNEKLRPRRREIRFRVLVKVVFFASMLMRKVMASRVRATVLFATETGKSEALARDLATLFSYAFNTKVVCMDQYKASTLEEEQLLLVVTSTFGNGDCPSNGQTLKKSLFMLRELNHTFRYAVFGLGSSMYPQFCAFAHDIDQKLSHLGASQLAPTGEGDELSGQEDAFRSWAVQTFRAACETFDVRSKHHIQIPKRFTSNATWEPQQYRLIQSPEPLDLNRALSSIHAKNVFTMRLKSQQNLQSEKSSRTTLLVQLTFEGSRGPSYLPGEHLGIFPGNQTALVQGILERVVDCPTPHQTVCLEVLDESGSYWVKDKRLPPCSLSQALTYFLDITTPPTQLQLHKLARFATDETDRQRLEALCQPSEYNDWKFSNNPTFLEVLEEFPSLHVPAAFLLSQLPILKPRYYSISSSQDHTPSEVHLTVAVVTYRTRDGQGPLHHGVCSTWIRNLKPQDPVPCFVRSVSGFQLPEDPSQPCILIGPGTGIAPFRSFWQQRLHDSQHKGLKGGRMSLVFGCRHPEEDHLYQEEMQEMVRKRVLFQVHTGYSRLPGKPKVYVQDILQKQLANEVLSVLHGEQGHLYICGDVRMARDVATTLKKLVATKLNLSEEQVEDYFFQLKSQKRYHEDIFGAVFSYGAKKGSALEEPKATRL
notes: Endogenous protein in cell extract and gel filtration fractions; It ran as monomer and dimer peaks without compound A and as monomer only with compound A; also called iNOS protein
As for B1, in series [4], the binding result is listed as “binds”.
